Experiments:
[1] = system: NAMEC-Tom-Ras and HMLE-GFP-Ras cells; assay: Co-mixed NAMEC-Tom-Ras (CSC-enriched) and HMLE-GFP-Ras (CSC-depleted) cells, kinase inhibition, FACS; format: cell-based, human; conditions: for which cell type is more sensitive / selected against: dose response, co-mixed cells; for resistance of NAMEC-Tom-Ras cells relative to HMLE-GFP-Ras cells: at LC50, co-mixed cells
Description: (§1) Kinase inhibitors and other chemical compounds were obtained from various sources listed below. These were dissolved or diluted in DMSO. To set up the screen, 75,000 NAMEC-Tom and 15,000 HMLE-GFP cells were seeded into each well of a 6-well tissue culture plate. The following day, spent media was replaced with 3 ml of fresh media. Inhibitors were added to achieve the desired range of concentrations. For control treatment, DMSO was added. Fresh media containing inhibitors were replaced daily during the six day period. For analysis, cells were trypsinized with 1 ml 0.15% trypsin, diluted with 1 ml serum-containing media and fixed with 1 ml of 4% paraformaldehyde. FACS analysis was performed to analyze the proportion of surviving cells relative to DMSO-treated control for NAMEC-Tom or HMLE-GFP cells. To test the effects of these inhibitors on CSCs and non-CSCs, NAMEC-Ras-Tom and […] were used in similar co-mixed experiments.
as §1, with “experiments. To assess the fraction of cells undergoing apoptosis, cells were exposure to agents for three days without fresh media and then analyzed with Annexin V-APC (BD Biosciences).” for “experiments.”
Having determined that NAMEC-Ras cells were enriched for CSCs, we mixed NAMEC-Ras cells labeled with tdTomato (NAMEC-Tom-Ras) and HMLE-Ras cells labeled with GFP (HMLE-GFP-Ras) and re-tested the effects of kinase inhibition as described above. […] In addition, these NAMEC-Tom-Ras cells were more resistant to paclitaxel (11.3 fold) and staurosporine (32.8 fold) than the corresponding HMLE-GFP-Ras cells used as controls (FIG. 3C).

HMLE-GFP cells = assay: Annexin V apoptosis in co-mixed culture, HMLE-GFP gate; format: cell-based, human; conditions: co-mixed cells treated for three days
Description: as §1, with “experiments. To assess the fraction of cells undergoing apoptosis, cells were exposure to agents for three days without fresh media and then analyzed with Annexin V-APC (BD Biosciences).” for “experiments.”
(§2) To assess how PKC inhibitors function in these cell populations, we tested whether they induced apoptosis. Thus, the mixed cell populations described above were treated with one of the inhibitors (Ro-31-8220) for three days and assessed with Annexin V, which marks apoptotic cells. 89% of NAMEC-Tom cells underwent apoptosis in comparison to 22.4% of the HMLE-GFP cells (FIG. 2E).

NAMEC-Tom cells = assay: Annexin V apoptosis in co-mixed culture, NAMEC-Tom gate; format: cell-based, human; conditions: co-mixed cells treated for three days
Description: as §1, with “experiments. To assess the fraction of cells undergoing apoptosis, cells were exposure to agents for three days without fresh media and then analyzed with Annexin V-APC (BD Biosciences).” for “experiments.”
as §2

[2] = system: NAMEC-Tom and HMLE-GFP cells; assay: Kinase inhibitor screen: co-mixed NAMEC-Tom and HMLE-GFP cells, six days of inhibitor, FACS; format: cell-based, human; conditions: six days of inhibitor treatment, FACS relative to DMSO
Description: as §1
as §1, with “experiments. To assess the fraction of cells undergoing apoptosis, cells were exposure to agents for three days without fresh media and then analyzed with Annexin V-APC (BD Biosciences).” for “experiments.”
We undertook to identify kinase inhibitors that selectively targeted mesenchymal-like cells including those with stem cell properties. To do so, we established a screen that measured the ability of candidate inhibitors to preferentially deplete NAMECs but not parental HMLE cells from cell cultures. Thus, we labeled NAMECs with the tdTomato red fluorescent protein (NAMEC-Tom) and the HMLE cells with the GFP green fluorescent protein (HMLE-GFP); we then attempted to reconstitute certain stem cell and non-stem cell interactions that might operate in vivo by mixing the two cell populations in 6-well adherent tissue culture plates. One day later, we challenged these cultures with a variety of kinase inhibitors (FIG. 2A).
The robustness of this screen, designed to identify mesenchymal cell-specific inhibitors, was enhanced by seeding NAMEC-Tom and HMLE-GFP cells in a 5:1 ratio. While NAMEC-Tom cells, like others that have passed through an EMT, proliferated marginally more slowly than their epithelial counterparts in culture, their initial advantage in seeding density was compensated over the course of the six day-long assays by the more rapid proliferation of the HMLE-GFP cells (FIG. 11). After six days of treatment, the relative proportions of NAMEC-Tom and HMLE-GFP cells were quantified with fluorescent-activated cell sorting (FACS) to determine the selective effects, if any, of these various inhibitors (FIG. 2A).

NAMECs = assay: Cellular plasticity of NAMECs: differentiation by PGE2 blockade and inhibitor sensitivity; format: cell-based, human; conditions: for sensitivity of GW-treated (differentiated) NAMECs: after differentiation with GW627368; for sensitivity of NAMECs relative to parental HMLE cells: undifferentiated NAMECs
Text: NAMECs are phenotypically plastic and can transit between the epithelial and mesenchymal cell state. The cells relied on autocrinal PGE2 signaling for maintenance of the mesenchymal state.

p-FRA1^S265 = assay: Western blot of FRA1 phosphorylation in NAMECs; format: cell-based, human; conditions: for effect on phosphorylation of FRA1: applied to NAMECs for 30 min; for total FRA1: within 30 min of treatment
Description: (§3) To obtain protein extracts, cells were scraped from culture dishes in chilled PBS, centrifuged at 450×g for 4 min at 4° C., washed again in PBS, and incubated for 20 min in ice cold lysis buffer containing freshly added protease inhibitors (0.5 mM phenylmethylsulfonyl fluoride, 10 μg/ml leupeptin, 2 μg/ml aprotonin). Lysates were cleared by centrifugation at 12,100×g, 4° C. for 10 min and the supernatant was snap frozen in liquid nitrogen. Protein concentrations were determined using Bradford Dye (Bio-Rad). 30 μg total protein was separated by SDS-PAGE on NuPAge gels (Invitrogen), and transferred to Hybond-P PVDF membrane (GE Healthcare). The membrane was probed with specific primary antibodies and antibody-protein complex detected by HRP-conjugated antibodies and ECL-Plus (Amersham Biosciences).
FRA1 is a member of the Fos family of transcription factors, which is also comprised of c-Fos, FosB and Fra2. Together with the Jun family of transcription factors composed of c-Jun, JunB and JunD, individual members of the Fos and Jun family associate with one another to form heterodimeric activator protein-1 (AP-1) complexes that bind and transcriptionally regulate target gene expression when phosphorylated (Eferl and Wagner, 2003).
We assessed whether the observed increased p-FRA1 activity in the mesenchymal cells could be further augmented by elevated ERK signaling during EMT. Accordingly, inhibition of ERK1/2 phosphorylation with a MEK inhibitor was able to decrease p-FRA1^S265 levels by 65% but not the levels of total FRA1 or p-c-Jun (FIG. 5G), confirming that ERK1/2 signaling promoted p-FRA1 activity.

[3] = system: p-PKCα^S497 and p-PKCα^T638; assay: Western blot of PKCα phosphorylation in NAMECs; format: cell-based, human
Description: as §3
We subsequently sought to determine whether PKCα activation was directly dependent upon PDGFR-PLCγ. Exposure of NAMECs to a PLCγ inhibitor (U73122) reduced active p-PKCα^S497 and p-PKCα^T638 by 1.3 and 3.1-fold respectively within 30 min, and 6.3 and 4.2-fold respectively by 60 min (FIG. 13C); total PKCα level was unchanged (FIG. 13C). The inhibition of PDGFR in NAMECs, similarly, led to a loss of PKCα phosphorylation (p-PKCα^S497: 2.8 fold, p-PKCα^T638: 5.9 fold), as illustrated once again by the loss of active p-PKCα^S497 and p-PKCα^T638 within 30 min, while total PKCα remained constant (FIG. 13D).

[4] = system: p-B-Raf, p-c-Raf, p-MEK1/2 and p-ERK1/2; assay: Western blot of MAPK/ERK signaling in NAMECs; format: cell-based, human; conditions: 30 min
Description: as §3
We assessed whether mesenchymal cells contained higher Ras expression or activated Ras. […] We assessed whether enhanced ERK signaling in the mesenchymal cell state was primarily mediated through the activated PDGFR and PKCα signaling cascade, rather than through activation via a Ras-Raf pathway. To test this, we exposed NAMECs to PKCα-specific inhibitors for 30 min. This reduced p-B-Raf and p-c-Raf expression, and led to the loss of p-MEK1/2 and p-ERK1/2 (FIG. 5F). […] Therefore, the enhanced activity of ERK signaling during EMT was, in part, conferred by signaling through PDGFR and PKCα.

NAMEC-Ras cells = assay: NAMEC-Ras subcutaneous xenograft, treatment from day of implantation; format: in vivo
Description: All research involving animals complied with protocols approved by the MIT Committee on Animal Care. For subcutaneous injections, cells resuspended in 100111 PBS containing 50% Matrigel were injected into both flanks female NOD-SCID mice except for studies involving the in vivo administration of chemical inhibitors where only one flank was implanted. The tumor incidence and weight were measured between 4 and 12 weeks post-injection.
In order to assess the therapeutic benefits of PKCα and SPHK1/2 inhibitors, NOD-SCID mice were xenografted with 5×10^4 NAMEC-Ras cells and treated for 30 days with a daily intraperitoneal dose of either DMSO control, PKCα Inh (5 mg/kg/d), SPHK1/2 Inh (5 mg/kg/d) or PKCα+SPHK1/2 inhibitors (2.5 mg/kg/d of each).

[5] = 5×10^4 cells, daily intraperitoneal 30 days, 5 mg/kg/d (combination 2.5 mg/kg/d of each), after 15 weeks

## O=C(Nc1cccc(Nc2cc(Nc3cccc(C(F)(F)F)c3)ncn2)c1)C1CC1 [EGFR Inh]
[1]
  which cell type is more sensitive / selected against: HMLE-Ras-GFP were more sensitive

## CC(=O)O[C@H]1C(=O)[C@@]2(C)[C@H]([C@H](OC(=O)c3ccccc3)[C@]3(O)C[C@H](OC(=O)[C@H](O)[C@@H](NC(=O)c4ccccc4)c4ccccc4)C(C)=C1C3(C)C)[C@]1(OC(C)=O)CO[C@@H]1C[C@@H]2O [paclitaxel]
HMLE-GFP cells
  apoptosis of HMLE-GFP cells (Annexin V): 89%
NAMEC-Tom cells
  apoptosis of NAMEC-Tom cells (Annexin V): 22.3%
[2]
  preferential depletion of NAMEC-Tom or HMLE-GFP cells in co-mixed culture: preferentially depleted the epithelial HMLE-GFP cells
[1]
  resistance of NAMEC-Tom-Ras cells relative to HMLE-GFP-Ras cells: 11.3 fold
NAMECs
  sensitivity of GW-treated (differentiated) NAMECs: became sensitive
  sensitivity of NAMECs relative to parental HMLE cells: resistant

## COc1cccc2c1C(=O)c1c(O)c3c(c(O)c1C2=O)C[C@@](O)(C(=O)CO)C[C@@H]3O[C@H]1C[C@H](N)[C@H](O)[C@H](C)O1 [doxorubicin]
[2]
  preferential depletion of NAMEC-Tom or HMLE-GFP cells in co-mixed culture: preferentially depleted the epithelial HMLE-GFP cells

## CN(C)CCCn1cc(C2=C(c3c[nH]c4ccccc34)C(=O)NC2=O)c2ccccc21 [bisindolylmaleimide I]
[2]
  preferential depletion of NAMEC-Tom or HMLE-GFP cells in co-mixed culture: diminished NAMEC-Tom cells relative to HMLE-GFP cells
p-FRA1^S265
  effect on phosphorylation of FRA1: blocked the phosphorylation of FRA1
  total FRA1: unchanged

## Oc1ccc(Nc2nc(-c3ccc(Cl)cc3)cs2)cc1 [SKI2]
NAMECs
  sensitivity of GW-treated (differentiated) NAMECs: lost their sensitivity
  sensitivity of NAMECs relative to parental HMLE cells: more sensitive

## COc1cc2c(cc1OC)-c1[nH]nc(Nc3cccc(F)c3)c1C2 [PDGFR Inh IV]
[1]
  which cell type is more sensitive / selected against: NAMEC-Ras-Tom cells were more sensitive
[3]
  effect on PKCα phosphorylation: reduced phosphorylation of PKCα
p-FRA1^S265
  effect on phosphorylation of FRA1: blocked the phosphorylation of FRA1
[4]
  effect on phospho-proteins of ERK signaling: downregulation of B-Raf and C-Raf phosphorylation, and dampening ERK signaling

## Cn1cc(C2=C(c3cn(CCCSC(=N)N)c4ccccc34)C(=O)NC2=O)c2ccccc21 [Ro-31-8220]
HMLE-GFP cells
  apoptosis of HMLE-GFP cells (Annexin V): 22.4%
NAMEC-Tom cells
  apoptosis of NAMEC-Tom cells (Annexin V): 89%
[2]
  preferential depletion of NAMEC-Tom or HMLE-GFP cells in co-mixed culture: diminished NAMEC-Tom cells relative to HMLE-GFP cells
NAMECs
  sensitivity of GW-treated (differentiated) NAMECs: lost their sensitivity
  sensitivity of NAMECs relative to parental HMLE cells: more sensitive
p-FRA1^S265
  effect on phosphorylation of FRA1: blocked the phosphorylation of FRA1
  total FRA1: unchanged
NAMEC-Ras cells; [5]
  mice that formed tumors: four of eight
  tumor weight: ~0.16 g
NAMEC-Ras cells; 30 days of treatment followed by eight weeks of observation
  tolerability in mice: well-tolerated in mice and had no adverse effects

## CN[C@@H]1C[C@H]2O[C@@](C)([C@@H]1OC)n1c3ccccc3c3c4c(c5c6ccccc6n2c5c31)C(=O)NC4 [staurosporine]
HMLE-GFP cells
  apoptosis of HMLE-GFP cells (Annexin V): 98%
NAMEC-Tom cells
  apoptosis of NAMEC-Tom cells (Annexin V): 29.7%
[2]
  preferential depletion of NAMEC-Tom or HMLE-GFP cells in co-mixed culture: preferentially depleted the epithelial HMLE-GFP cells
[1]
  resistance of NAMEC-Tom-Ras cells relative to HMLE-GFP-Ras cells: 32.8 fold
NAMECs
  sensitivity of GW-treated (differentiated) NAMECs: became sensitive
  sensitivity of NAMECs relative to parental HMLE cells: resistant

## COc1ccc2c(c1)CC[C@@H]1[C@@H]2CC[C@]2(C)[C@@H](NCCCCCCN3C(=O)C=CC3=O)CC[C@@H]12 [U73122]
[3]
  effect on PKCα phosphorylation: The upregulation of PKCα phosphorylation by PDGFC was blocked
  total PKCα level: unchanged
[3]; by 60 min
  reduction of p-PKCα^S497: 6.3 fold
  reduction of p-PKCα^T638: 4.2 fold
[3]; within 30 min
  reduction of p-PKCα^S497: 1.3 fold
  reduction of p-PKCα^T638: 3.1 fold

## CCOc1c2c(c(OCC)c3ccccc13)C(=O)N(c1ccc(CC(=O)NS(=O)(=O)c3ccccc3)cc1)C2 [GW627368]
NAMECs; PGE2 inhibition
  protein changes accompanying differentiation: downregulation of p-PKCα and SPHK1/2 proteins
NAMECs; blocked PGE2 signaling
  morphology of NAMECs: differentiated into an epithelial morphology within three weeks

## CC#CC(=O)Nc1cc2c(Nc3ccc(F)c(Cl)c3)ncnc2cn1 [EGFR Inh III]
[1]
  which cell type is more sensitive / selected against: HMLE-Ras-GFP were more sensitive

## PKC 20-28: PKCα inhibitor, EMD Biosciences 476480 (FARKGALRQ; pseudosubstrate peptide; UniProt P17252 20-28, looked up, fragment)
[2]
  preferential depletion of NAMEC-Tom or HMLE-GFP cells in co-mixed culture: diminished NAMEC-Tom cells relative to HMLE-GFP cells

## CCCCCCCCc1cccc(NC(=O)[C@H](N)COP(=O)(O)O)c1 [VPC23019]
[1]
  which cell type is more sensitive / selected against: selected against NAMEC-Tom-Ras cells relative to HMLE-GFP-Ras cells in a dose-dependent manner

Source: US10106778B2, “Selective targeting of cancer stem cells” (Whitehead Institute for Biomedical Research, priority 2012, dated 2018)
